According to patent publication US20220257774A1, “AROMATIC AMINE AR AHD BET TARGETING PROTEIN DEGRADATION CHIMERA COMPOUND AND USE” (HINOVA PHARMACEUTICALS INC., priority 2019, published 2022):
Read-outs that look alike come from different tables or passages of the source.

Columns and labels:
LNCaP/AR cells = assay: Inhibition of the proliferation of LNCap/AR cells (CCK-8); type: cell-based; settings: read-out: LNCap/AR IC50
Procedure, shortened: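 LNCaP/AR cells (1000/well, RPMI1640 + 10% FBS) were treated for 6 days at 37 °C with 9-point 3-fold dilutions from 10 μM final, 0.1% DMSO, in duplicate. Viability was read by CCK-8 absorbance at 450 nm after 1 h, and IC50 came from a dose-response-inhibition fit.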

22RV1 cells = assay: Inhibition of the proliferation of drug-resistant prostate cancer cell 22RV1 (CCK-8); type: cell-based; settings: 22RV1 cells (enzalutamide-resistant), same method
Procedure, shortened: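 22RV1 cells, 1000/well in RPMI1640 with 10% FBS, treated in duplicate with 9-point 3-fold dilutions from 10 μM (0.1% DMSO final). After 6 days at 37 °C, CCK-8 added for 1 h and OD450 read. IC50 from dose-response inhibition fit.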

[1] = 144 h, LNCaP/AR cells, 6 days culture, CCK-8
[2] = LNCaP/AR cells, 6 days culture, CCK-8

Cc1ccc(-c2c(C)noc2C)cc1N(CC1CN(C2CCN(c3ccc4c(c3)C(=O)N(C3CCC(=O)NC3=O)C4)CC2)C1)c1ccc(C2(C#N)CC2)cc1 (stereo not shown) [Compound 75, 1-(4-((5-(3,5-dimethylisoxazol-4-yl)-2-methylphenyl)((1-(1-(2-(2,6-dioxopiperidin-3-yl)-3-oxoisoindolin-5-yl)piperidin-4-yl)azetidin-3-yl)methyl)amino)phenyl)cyclopropane-1-carbonitrile]
IC50 (LNCaP/AR cells; [1]): > 2 µM
IC50 (22RV1 cells; Homo sapiens): > 2 µM

Cc1ccc(-c2c(C)noc2C)cc1N(C[C@H]1CC[C@H](Nc2cc3c(cc2F)CN(C2CCC(=O)NC2=O)C3=O)CC1)c1ccc(C2(C#N)CC2)c(Cl)c1 (stereo partly shown) [Compound 114]
IC50 (LNCaP/AR cells; [2]): 0.101 to 0.5 µM
IC50 (22RV1 cells): 0.101 to 0.5 µM

Cc1ccc(-c2c(C)noc2C)cc1N(CC1CN(C2CCN(c3ccc4c(c3)CN(C3CCC(=O)NC3=O)C4=O)CC2)C1)c1ccc(C2(C#N)CC2)cc1 (stereo not shown) [Compound 76, 1-(4-((5-(3,5-dimethylisoxazol-4-yl)-2-methylphenyl)((1-(1-(2-(2,6-dioxopiperidin-3-yl)-1-oxoisoindolin-5-yl)piperidinyl-4-yl)azetidin-3-yl)methyl)amino)phenyl)cyclopropane-1-carbonitrile]
IC50 (LNCaP/AR cells; [1]): > 2 µM
IC50 (22RV1 cells; Homo sapiens): > 2 µM

Cc1ccc(-c2c(C)noc2C)cc1N(C[C@H]1C[C@@H]1CNc1ccc2c(c1)C(=O)N(C1CCC(=O)NC1=O)C2=O)c1ccc(C2(C#N)CC2)cc1 (stereo partly shown) [Compound 182]
IC50 (LNCaP/AR cells; [1]): > 2 µM
IC50 (22RV1 cells; Homo sapiens): 0.101 to 0.5 µM

Cc1ccc(-c2c(C)noc2C)cc1N(CC1CCN(C2CCN(c3ccc4c(c3)C(=O)N(C3CCC(=O)NC3=O)C4=O)CC2)CC1)c1ccc(C2(C#N)CC2)cc1 (stereo not shown) [Compound 77, 1-(4-((5-(3,5-dimethylisoxazol-4-yl)-2-methylphenyl)((1′-(2-(2,6-dioxopiperidin-3-yl)-1,3-dioxoisoindolin-5-yl)-[1,4′-bipiperidine]-4-yl)methyl)amino)phenyl)cyclopropane-1-nitrile]
IC50 (LNCaP/AR cells; LNCaP/AR, 144 h): > 2 µM
IC50 (22RV1 cells; Homo sapiens): > 2 µM

Cc1ccc(-c2c(C)noc2C)cc1N(CCCCNc1ccc2c(c1)C(=O)N(C1CCC(=O)NC1=O)C2=O)c1ccc(C2(C#N)CC2)cc1 (stereo not shown) [Compound 41, 1-(4-((5-(3,5-Dimethylisoxazol-4-yl)-2-methylphenyl)(4-((2-(2,6-dioxopiperidin-3-yl)-1,3-dioxoisoindolin-5-yl)amino)butyl)amino)phenyl)cyclopropane-1-nitrile]
IC50 (LNCaP/AR cells; [1]): 0.101 to 0.5 µM
IC50 (22RV1 cells; Homo sapiens): < 0.1 µM

Cc1ccc(-c2c(C)noc2C)cc1N(CCCC1CCN(c2ccc3c(c2)C(=O)N(C2CCC(=O)NC2=O)C3)CC1)c1ccc(C2(C#N)CC2)cc1 (stereo not shown) [Compound 31, 1-(4-((5-(3,5-Dimethylisoxazol-4-yl)-2-methylphenyl)(3-(1-(2-(2,6-dioxopiperidin-3-yl)-3-oxoisoindolin-5-yl)piperidin-4-yl)propyl)amino)phenyl)cyclopropane-1-nitrile]
IC50 (LNCaP/AR cells; [1]): 0.101 to 0.5 µM
IC50 (22RV1 cells; Homo sapiens): < 0.1 µM

Cc1ccc(-c2c(C)noc2C)cc1N(CC1CCC(COc2ccc3c(c2)C(=O)N(C2CCC(=O)NC2=O)C3=O)CC1)c1ccc(C#N)c(Cl)c1 (stereo not shown) [Compound 104, 2-Chloro-4-((5-(3,5-dimethylisoxazol-4-yl)-2-methylphenyl)((1r,4r)-4-((2-(2,6-dioxopiperidin-3-yl)-1,3-dioxoisoindolin-5-yl)oxy)methyl)cyclohexyl)methyl)amino)benzonitrile]
IC50 (LNCaP/AR cells; [2]): 0.501 to 2 µM
IC50 (22RV1 cells): 0.101 to 0.5 µM

Cc1ccc(-c2c(C)noc2C)cc1N(c1ccc(C2(C#N)CC2)cc1)C1CN(CC2CCN(c3ccc4c(c3)C(=O)N(C3CCC(=O)NC3=O)C4=O)CC2)C1 (stereo not shown) [Compound 34, 1-(4-((5-(3,5-Dimethylisoxazol-4-yl)-2-methylphenyl) (1-((1-(2-(2,6-dioxopiperidin-3-yl)-1,3-dioxoisoindolin-5-yl)piperidin-4-yl)methyl)azetidin-3-yl)amino)phenyl)cyclopropane-1-nitrile]
IC50 (LNCaP/AR cells; [1]): > 2 µM
IC50 (22RV1 cells; Homo sapiens): > 2 µM

Cc1ccc(-c2c(C)noc2C)cc1N(CC1CN(C2CN(c3cc4c(cc3F)C(=O)N(C3CCC(=O)NC3=O)C4)C2)C1)c1ccc(C2(C#N)CC2)cc1 (stereo not shown) [Compound 158]
IC50 (LNCaP/AR cells; [2]): < 0.1 µM
IC50 (22RV1 cells): < 0.1 µM

Cc1ccc(-c2c(C)noc2C)cc1N(CCCCNc1cc2c(cc1F)C(=O)N(C1CCC(=O)NC1=O)C2)c1ccc(C#N)c(Cl)c1 (stereo not shown) [Compound 167, 2-Chloro-4-((5-(3,5-dimethylisoxazol-4-yl)-2-methylphenyl)(4-((2-(2,6-dioxopiperidin-3)-6-fluoro-1-isoindolinone-5-yl)amino)butyl)amino)benzonitrile]
IC50 (LNCaP/AR cells; LNCaP/AR, 144 h): 0.501 to 2 µM
IC50 (22RV1 cells; Homo sapiens): > 2 µM

Cc1ccc(-c2c(C)noc2C)cc1N(CCCNc1cc2c(cc1F)C(=O)N(C1CCC(=O)NC1=O)C2=O)c1ccc(C2(C#N)CC2)cc1 (stereo not shown) [Compound 171, 1-(4-((5-(3,5-Dimethylisoxazol-4-yl)-2-methylphenyl)(3-((2-(2,6-dioxopiperidin-3-yl)-6-fluoro-1,3-dioxoidindolin-5-yl)amino)propyl)amino)phenyl)cyclopropane-1-nitrile]
IC50 (LNCaP/AR cells; [2]): > 2 µM
IC50 (22RV1 cells): > 2 µM

Cc1ccc(-c2c(C)noc2C)cc1N(CCN1CCN(c2ccc3c(c2)CN(C2CCC(=O)NC2=O)C3=O)CC1)c1ccc(C2(C#N)CC2)cc1 (stereo not shown) [Compound 65, 1-(4-((5-(3,5-dimethylisoxazol-4-yl)-2-methylphenyl)(2-(4-(2-(2,6-dioxopiperidin-3-yl)-1-oxoisoindolin-5-yl)piperazin-1-yl)ethyl)amino)phenyl)cyclopropane-1-nitrile]
IC50 (LNCaP/AR cells; [1]): 0.501 to 2 µM
IC50 (22RV1 cells; Homo sapiens): 0.101 to 0.5 µM

Cc1ccc(-c2c(C)noc2C)cc1N(c1ccc(C2(C#N)CC2)cc1)C1CC2(C1)CN(c1cc3c(cc1F)C(=O)N(C1CCC(=O)NC1=O)C3=O)C2 (stereo not shown) [Compound 170]
IC50 (LNCaP/AR cells; [1]): > 2 µM
IC50 (22RV1 cells; Homo sapiens): > 2 µM

Cc1ccc(-c2c(C)noc2C)cc1N(C[C@H]1CC[C@H](CNc2ccc3c(c2)C(=O)N(C2CCC(=O)NC2=O)C3=O)CC1)c1ccc(C#N)c(Cl)c1 (stereo partly shown) [Compound 132, 2-Chloro-4-((5-(3,5-dimethylisoxazol-4-yl)-2-methylphenyl)(((1r,4r)-4-(((2-(2,6-dioxopiperidin-3-yl)-1,3-dioxoisoindolin-5-yl)amino)methyl)cyclohexyl)methyl)amino)benzonitrile]
IC50 (LNCaP/AR cells; LNCaP/AR, 144 h): > 2 µM
IC50 (22RV1 cells; Homo sapiens): 0.101 to 0.5 µM

Cc1ccc(-c2c(C)noc2C)cc1N(CC1CN(C2CCN(c3ccc4c(c3)C(=O)N(C3CCC(=O)NC3=O)C4=O)CC2)C1)c1ccc(C2(C#N)CC2)cc1 (stereo not shown) [Compound 152]
IC50 (LNCaP/AR cells; LNCaP/AR, 144 h): > 2 µM
IC50 (22RV1 cells; Homo sapiens): 0.501 to 2 µM

Cc1ccc(-c2c(C)noc2C)cc1N(CCCCCOCC(=O)N[C@H](C(=O)N1C[C@H](O)C[C@H]1C(=O)N[C@@H](C)c1ccc(-c2scnc2C)cc1)C(C)(C)C)c1ccc(C2(C#N)CC2)cc1 [Compound 143]
IC50 (LNCaP/AR cells; [1]): 0.101 to 0.5 µM
IC50 (22RV1 cells; Homo sapiens): < 0.1 µM

Cc1ccc(-c2c(C)noc2C)cc1N(CC1CCN(CC2CN(c3ccc4c(c3)C(=O)N(C3CCC(=O)NC3=O)C4=O)C2)CC1)c1ccc(C2(C#N)CC2)cc1 (stereo not shown) [Compound 78, 1-(4-((5-(3,5-dimethylisoxazol-4-yl)-2-methylphenyl)((1-((1-(2-(2,6-dioxopiperidin-3-yl)-1,3-dioxoisoindolin-5-yl)azetidin-3-yl)methyl)piperidin-4-yl)methyl)amino)phenyl)cyclopropane-1-carbonitrile]
IC50 (LNCaP/AR cells; [1]): > 2 µM
IC50 (22RV1 cells; Homo sapiens): > 2 µM

Cc1ccc(-c2c(C)noc2C)cc1N(CC1CCC(Nc2cc3c(cc2F)C(=O)N(C2CCC(=O)NC2=O)C3)CC1)c1ccc(C2(C#N)CC2)cc1 (stereo not shown) [Compound 163, 1-(4-((5-(3,5-Dimethylisoxazol-4-yl)-2-methylphenyl)(((1s,4s)-4-((2-(2,6-dioxopiperidin-3)-6-fluoro-1-isoindolinone-5-yl)amino)cyclohexyl)methyl)amino)phenyl)phenylcyclopropanecarbonitrile]
IC50 (LNCaP/AR cells; [2]): < 0.1 µM
IC50 (22RV1 cells): > 2 µM

Cc1ccc(-c2c(C)noc2C)cc1N(CCC(C)CCNc1ccc2c(c1)C(=O)N(C1CCC(=O)NC1=O)C2=O)c1ccc(C2(C#N)CC2)cc1 (stereo not shown) [Compound 192, 1-(4-((5-(3,5-dimethylisoxazol-4-yl)-2-methylphenyl)(5-((2-(2,6-dioxopiperidin-3-yl)-1,3-dioxoisoindolin-5-yl)amino)-3-methylpentanyl)amino)phenyl)cyclopropane-1-carbonitrile]
IC50 (LNCaP/AR cells; [1]): 0.501 to 2 µM
IC50 (22RV1 cells; Homo sapiens): < 0.1 µM

Cc1ccc(-c2c(C)noc2C)cc1N(CCCOC1CN(c2ccc3c(c2)C(=O)N(C2CCC(=O)NC2=O)C3=O)C1)c1ccc(C2(C#N)CC2)cc1 (stereo not shown) [Compound 119, 1-(4-((5-(3,5-dimethylisoxazol-4-yl)-2-methylphenyl)(3-((1-(2-(2,6-dioxopiperidin-3-yl)-1,3-dioxoisoindolin-5-yl)azetidin-3-yl)oxy)propyl)amino)phenyl)cyclopropane-1-nitrile]
IC50 (LNCaP/AR cells; [1]): 0.101 to 0.5 µM
IC50 (22RV1 cells; Homo sapiens): > 2 µM

Cc1ccc(-c2c(C)noc2C)cc1N(CC1CCC(COc2ccc3c(c2)CN(C2CCC(=O)NC2=O)C3=O)CC1)c1ccc(C#N)c(Cl)c1 (stereo not shown) [Compound 105, 2-Chloro-4-((5-(3,5-dimethylitsoxazol-4-yl)-2-methylphenyl)((1r,4r)-4-((2-((2,6-dioxopiperidin-3-yl)-1-oxoisoindolin-5-yl)oxy)methyl)cyclohexyl)methyl)amino)benzonitrile]
IC50 (LNCaP/AR cells; [2]): 0.501 to 2 µM
IC50 (22RV1 cells): 0.101 to 0.5 µM

Cc1ccc(-c2c(C)noc2C)cc1N(CCC(C)CCNc1cc2c(cc1F)C(=O)N(C1CCC(=O)NC1=O)C2=O)c1ccc(C2(C#N)CC2)cc1 (stereo not shown) [Compound 189, 1-(4-((5-(3,5-dimethylisoxazol-4-yl)-2-methylphenyl)(5-((2-(2,6-dioxopiperidin-3-yl)-6-fluoro-1,3-dioxoisoindolin-5-yl)amino)-3-methylpentanyl)amino)phenyl)cyclopropane-1-carbonitrile]
IC50 (LNCaP/AR cells; [1]): > 2 µM
IC50 (22RV1 cells; Homo sapiens): 0.501 to 2 µM
